Results published in US8969578B2, “Inhibitors of STAT3” (University of Central Florida Research Foundation, Inc., priority 2008, dated 2015).

Tested on: NIH3T3/vSrc cells
Test: WST-1 cell viability/proliferation assay, NIH3T3/vSrc
Type: cell-based, mouse
Description: Initial in vitro whole-cell experiments were conducted against normal mouse NIH-3T3 fibroblasts and v-src-transformed counterparts (NIH-3T3/v-src) that harbor aberrant STAT3. Inhibitor effects upon cell viability, proliferation, and cytotoxicity were assessed through WST-1, a cell proliferation reagent that measures the metabolic activity of viable cells. […] It is assumed that the predominantly hydrophobic nature of these compounds facilitated successful permeation of the cell membrane despite the phosphate.

CC(C)C[C@H](NC(=O)[C@H](Cc1ccc(OP(=O)(O)O)cc1)NC(=O)c1ccc(C#N)cc1)C(=O)O [ISS610]
inhibitor concentration required for suppression in whole cells: millimolar concentrations
